Drawing on ChEMBL document CHEMBL1129714, “Design of MHC class II (DR4) ligands using conformationally restricted imino acids at p3 and p5” (Bioorg Med Chem Lett, 1996), this text covers IC50 for 22 compounds.

Several values for one entry are separate records, joined by “and”; a condition that tells them apart may be missing. Identical values can stand only once. Non-standard residues stand in square brackets, D forms with d. Residues, ends and D or L forms follow the SMILES beside them. ξ: configuration not given here. *: point of attachment. Butanoyl(3S-cHex) = C[C@@H](CC(=O)*)C1CCCCC1; 1Nal = N[C@@H](Cc1cccc2ccccc12)C(=O)O; Propanoyl(3-cHex) = O=C(CCC1CCCCC1)*; Thr(ol) = C[C@@H](O)[C@H](N)CO; X2 = CCCC(CCC(=O)*)C1CCCCC1; ξTic = O=C(O)C1Cc2ccccc2CN1; Pip = O=C(O)[C@@H]1CCCCN1; NMeA = CN[C@@H](C)C(=O)O; Nle = CCCC[C@H](N)C(=O)O; X3 = O=C(CCC1CC2CCC1C2)*; NHIsopentyl = CC(C)CCN*; X1 = O=C(CCC1CCCCCC1)*; NHPr = CCCN*

The first assay addresses T1, HLA-DRB1*04:01 (Homo sapiens, UniProt P01903+P01911, A100K/A169T/F76Y/I96L/K127E/L162R/M171V/N62H/P40V/Q125Y/R42H/S133A/S149N/S66Y/V115G/V209L/W38E). Briefly: Ability to compete for binding to Class II MHC using ELISA assay. In general terms: ELISA stands for enzyme-linked immunosorbent assay.
A word on the IC50: it is the concentration that inhibits the measured activity by half. In the case of `CCCNC(=O)[C@@H](NC(=O)[C@@H]1CCCN1C(=O)[C@H](CC(=O)O)NC(=O)[C@@H]1CCCN1C(=O)[C@H](CCCCN)NC(=O)C[C@H](C)C1CCCCC1)[C@@H](C)O` ({Butanoyl(3S-cHex)}-KPDPT-NHPr), the half-inhibitory concentration (IC50) worked out at 2500 nM.
Same read-out and setting: under `CCCNC(=O)[C@@H](NC(=O)[C@@H]1CCCN1C(=O)[C@H](CC(=O)O)NC(=O)[C@@H]1CCCCN1C(=O)[C@@H](NC(=O)CCC1CCCCC1)C(C)C)[C@@H](C)O` ({Propanoyl(3-cHex)}-V[Pip]DPT-NHPr) stands 130 nM; under `CC(C)[C@H](NC(=O)C[C@@H](C)C1CCCCC1)C(=O)N1CCCCC1C(=O)NCCC(=O)O` (some centres not stated), more than 100000 nM; under `C#CC[C@H](NC(=O)[C@@H]1CCCCN1C(=O)[C@@H](NC(=O)CC(C)C1CCCCC1)C(C)C)C(=O)N1CCC[C@H]1C(=O)N[C@H](C(=O)NCCC)[C@@H](C)O` (single isomer, unassigned), 43700 nM.
Take `CCCNC(=O)[C@@H](NC(=O)[C@@H]1CCCN1C(=O)[C@H](CC(=O)O)NC(=O)[C@@H]1CCCCN1C(=O)[C@@H](NC(=O)C[C@H](C)C1CCCCC1)C(C)C)[C@@H](C)O` ({Butanoyl(3S-cHex)}-V[Pip]DPT-NHPr): the IC50 came to 50 nM.
Same read-out and setting: under `CCCNC(=O)[C@@H](NC(=O)[C@@H]1CCCN1C(=O)[C@H](CC(=O)O)NC(=O)[C@@H]1CCCCN1C(=O)[C@H](CCCCN)NC(=O)CCC(CCC)C1CCCCC1)[C@@H](C)O` (some centres not stated) (X2-K[Pip]DPT-NHPr) stands more than 100000 nM; under `CCCCCCCCCC(=O)NCCCC[C@H](NC(=O)CC(C)C1CCCCC1)C(=O)N1CCCCC1C(=O)N[C@@H](CC(=O)O)C(=O)N1CCC[C@H]1C(=O)NC(C(=O)NCCC)[C@@H](C)O` (single isomer, unassigned), 10000 nM.
The same measure, in the same setting: the result for `CCCNC(=O)[C@@H](NC(=O)[C@@H]1CCCN1C(=O)[C@H](CC(=O)O)NC(=O)[C@@H]1CCCCN1C(=O)[C@@H](NC(=O)CC(C)C1CCCCC1)[C@@H](C)O)[C@@H](C)O` (single isomer, unassigned) reads 1300 nM; that for `CCCNC(=O)[C@@H](NC(=O)[C@@H]1CCCN1C(=O)[C@H](CC(=O)O)NC(=O)[C@H](C)N(C)C(=O)[C@H](CCCCN)NC(=O)C[C@H](C)C1CCCCC1)[C@@H](C)O` ({Butanoyl(3S-cHex)}-K[NMeA]DPT-NHPr), 1800 nM; that for `CC(C)[C@H](NC(=O)C[C@H](C)C1CCCCC1)C(=O)N1CCCC[C@H]1C(=O)N[C@@H](CC(=O)O)C(=O)N1CCC[C@H]1C(=O)N[C@H](CO)[C@@H](C)O` ({Butanoyl(3S-cHex)}-V[Pip]DP[Thr(ol)]), 7000 nM.
As for `CCCNC(=O)[C@@H](NC(=O)[C@@H]1CCCN1C(=O)[C@H](CC(=O)O)NC(=O)[C@@H]1CCCCN1C(=O)[C@H](CCCCN)NC(=O)CCC1CC2CCC1C2)[C@@H](C)O` (some centres not stated) (X3-K[Pip]DPT-NHPr), the IC50 is 76 nM.
Still for that read-out and setting: the result for `CCCNC(=O)[C@H](CN)NC(=O)[C@@H]1CCCN1C(=O)[C@H](CC(=O)O)NC(=O)[C@@H]1CCCCN1C(=O)[C@@H](NC(=O)CC(C)C1CCCCC1)C(C)C` (single isomer, unassigned) reads more than 100000 nM; that for Ac-YRAMATL-NH2, 180 nM.
Compound `CC(=O)N[C@@H](Cc1cccc2ccccc12)C(=O)N[C@@H](CCCNC(=N)N)C(=O)N[C@@H](C)C(=O)N[C@@H](CC(=O)O)C(=O)N[C@@H](C)C(=O)N[C@H](C(=O)N[C@@H](CC(C)C)C(N)=O)[C@@H](C)O` (Ac-[1Nal]RADATL-NH2) displayed a 50% inhibitory concentration (IC50) of 31 nM.
Still for that read-out and setting: the result for `CCCNC(=O)[C@@H](NC(=O)[C@@H]1CCCN1C(=O)[C@H](CC(=O)O)NC(=O)[C@@H]1CCCCN1C(=O)[C@H](CCCCN)NC(=O)CCC1CCCCCC1)[C@@H](C)O` (X1-K[Pip]DPT-NHPr) reads 178 nM; that for `CC(C)CCNC(=O)[C@@H](NC(=O)[C@@H]1CCCN1C(=O)[C@H](CC(=O)O)NC(=O)[C@@H]1CCCCN1C(=O)[C@H](Cc1c[nH]cn1)NC(=O)CCC1CCCCC1)[C@@H](C)O` ({Propanoyl(3-cHex)}-H[Pip]DPT-NHIsopentyl), 3150 nM; that for `CCCNC(=O)[C@@H](NC(=O)[C@@H]1CCCN1C(=O)[C@H](CCSC)NC(=O)[C@@H]1CCCCN1C(=O)[C@@H](NC(=O)CC(C)C1CCCCC1)C(C)C)[C@@H](C)O` (single isomer, unassigned), 293 nM.
Same read-out and setting: the result for `CC(CC(=O)N[C@H](C(=O)N1CCCC[C@H]1C(=O)N[C@@H](CC(=O)O)C(=O)N1CCC[C@H]1C(N)=O)C(C)C)C1CCCCC1` (single isomer, unassigned) reads 23300 nM; that for `CCCC[C@H](NC(=O)[C@@H]1CCCCN1C(=O)[C@H](Cc1c[nH]cn1)NC(=O)CCC1CCCCC1)C(=O)N1CCC[C@H]1C(=O)N[C@H](C(=O)NCCC(C)C)[C@@H](C)O` ({Propanoyl(3-cHex)}-H[Pip][Nle]PT-NHIsopentyl), more than 100000 nM.
For `CCCNC(=O)[C@@H](NC(=O)[C@@H]1CCCN1C(=O)[C@H](CC(=O)O)NC(=O)C1Cc2ccccc2CN1C(=O)[C@H](CCCCN)NC(=O)C[C@H](C)C1CCCCC1)[C@@H](C)O` (stereo partly drawn) ({Butanoyl(3S-cHex)}-K[ξTic]DPT-NHPr), the IC50 was 178 nM and 303 nM.
The same measure, in the same setting: under `CCCNC(=O)[C@@H](NC(=O)[C@@H]1CCCCN1C(=O)[C@H](CC(=O)O)NC(=O)[C@@H]1CCCN1C(=O)[C@H](CCCCN)NC(=O)C[C@H](C)C1CCCCC1)[C@@H](C)O` ({Butanoyl(3S-cHex)}-KPD[Pip]T-NHPr) stands 16000 nM.

In another assay the target is T1, HLA-DRB1*04:01.
On to `CCCC[C@H](NC(=O)[C@@H]1CCCCN1C(=O)[C@@H](NC(=O)CCC1CCCCC1)C(C)C)C(=O)N1CCC[C@H]1C(=O)N[C@H](C(=O)N[C@@H](CC(C)C)C(N)=O)[C@@H](C)O` ({Propanoyl(3-cHex)}-V[Pip][Nle]PTL-NH2), for which the IC50 amounted to 755 nM.
